Tests used:
Experiment in all cases: relative viability (nuclei count vs DMSO), 5 days (fraction); higher = more cells survive
[1] = tested on: NCI-H1993
In short: (§1)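 Five library-drug doses in √10 steps were combined with a fixed anchor-drug dose, or a single drug was given alone, by pin tool to lung cancer cell lines in 1536-well plates the day after seeding. Nuclei were stained and counted after 5 days. Relative viability is the nuclei count in treated wells over that in vehicle wells, taken as the median of duplicate plates.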

[2] = tested on: NCI-H2405
In short: as §1

[3] = tested on: NCI-H2085
In short: as §1

[4] = tested on: SK-MES-1
In short: as §1

[5] = tested on: NCI-H1355
In short: as §1

[6] = tested on: NCI-H1793
In short: as §1

[7] = tested on: UMC-11
In short: as §1

[8] = tested on: LCLC-103H
In short: as §1

[9] = tested on: NCI-H1395
In short: as §1

[10] = tested on: NCI-H23
In short: as §1

[11] = tested on: EPLC-272H
In short: as §1

[12] = tested on: LCLC-97TM1
In short: as §1

[13] = tested on: NCI-H1944
In short: as §1

[14] = tested on: HCC-827
In short: as §1

[15] = tested on: HCC-44
In short: as §1

[16] = tested on: EMC-BAC-2
In short: as §1

[17] = tested on: H3255
In short: as §1

[18] = tested on: NCI-H650
In short: as §1

[19] = tested on: NCI-H2087
In short: as §1

[20] = tested on: NCI-H1651
In short: as §1

[21] = tested on: NCI-H520
In short: as §1

[22] = tested on: ChaGo-K-1
In short: as §1

[23] = tested on: NCI-H322M
In short: as §1

## CC(C)Oc1cc(Nc2nc(N[C@@H](C)c3ccc(F)cn3)ncc2Cl)n[nH]1 [AZ23] + CC(=O)c1c(C)c2cnc(Nc3ccc(N4CCNCC4)cn3)nc2n(C2CCCC2)c1=O [Palbociclib] (partner 0.5 µM)
[1]; first compound 0.01 µM
  relative viability: 0.559
[1]; first compound 0.03162 µM
  relative viability: 0.695
[1]; first compound 0.3162 µM
  relative viability: 0.477
[2]; first compound 0.01 µM
  relative viability: 0.585
[2]; first compound 0.03162 µM
  relative viability: 0.52
[2]; first compound 0.3162 µM
  relative viability: 0.589
[3]; first compound 0.01 µM
  relative viability: 0.435
[3]; first compound 0.03162 µM
  relative viability: 0.469
[3]; first compound 0.3162 µM
  relative viability: 0.435
[4]; first compound 0.03162 µM
  relative viability: 0.291
[4]; first compound 0.3162 µM
  relative viability: 0.328
[5]; first compound 0.01 µM
  relative viability: 0.437
[5]; first compound 0.03162 µM
  relative viability: 0.455
[5]; first compound 0.3162 µM
  relative viability: 0.375
[6]; first compound 0.01 µM
  relative viability: 0.347
[6]; first compound 0.03162 µM
  relative viability: 0.35
[6]; first compound 0.3162 µM
  relative viability: 0.247
[7]; first compound 0.01 µM
  relative viability: 0.341
[7]; first compound 0.03162 µM
  relative viability: 0.338
[7]; first compound 0.3162 µM
  relative viability: 0.353
[8]; first compound 0.01 µM
  relative viability: 0.485
[8]; first compound 0.03162 µM
  relative viability: 0.421
[8]; first compound 0.3162 µM
  relative viability: 0.503
[9]; first compound 0.03162 µM
  relative viability: 0.694
[9]; first compound 0.3162 µM
  relative viability: 0.641
[10]; first compound 0.03162 µM
  relative viability: 0.548
[10]; first compound 0.3162 µM
  relative viability: 0.512
[11]; first compound 0.03162 µM
  relative viability: 0.279
[11]; first compound 0.3162 µM
  relative viability: 0.315
[12]; first compound 0.01 µM
  relative viability: 0.261
[12]; first compound 0.03162 µM
  relative viability: 0.248
[12]; first compound 0.3162 µM
  relative viability: 0.203
[13]; first compound 0.01 µM
  relative viability: 0.304
[13]; first compound 0.03162 µM
  relative viability: 0.342
[13]; first compound 0.3162 µM
  relative viability: 0.278
[14]; first compound 0.01 µM
  relative viability: 0.47
[14]; first compound 0.03162 µM
  relative viability: 0.535
[14]; first compound 0.3162 µM
  relative viability: 0.471
[15]; first compound 0.01 µM
  relative viability: 0.982
[15]; first compound 0.03162 µM
  relative viability: 0.994
[15]; first compound 0.3162 µM
  relative viability: 0.93
[16]; first compound 0.01 µM
  relative viability: 0.527
[16]; first compound 0.03162 µM
  relative viability: 0.523
[16]; first compound 0.3162 µM
  relative viability: 0.52
[17]; first compound 0.01 µM
  relative viability: 0.31
[17]; first compound 0.03162 µM
  relative viability: 0.318
[17]; first compound 0.3162 µM
  relative viability: 0.295
[18]; first compound 0.01 µM
  relative viability: 0.352
[18]; first compound 0.03162 µM
  relative viability: 0.309
[18]; first compound 0.3162 µM
  relative viability: 0.301
[19]; first compound 0.01 µM
  relative viability: 0.255
[19]; first compound 0.03162 µM
  relative viability: 0.21
[19]; first compound 0.3162 µM
  relative viability: 0.22
[20]; first compound 0.01 µM
  relative viability: 0.523
[20]; first compound 0.03162 µM
  relative viability: 0.526
[20]; first compound 0.3162 µM
  relative viability: 0.505
[21]; first compound 0.01 µM
  relative viability: 0.236
[21]; first compound 0.03162 µM
  relative viability: 0.193
[21]; first compound 0.3162 µM
  relative viability: 0.177
[22]; first compound 0.01 µM
  relative viability: 1.12
[22]; first compound 0.03162 µM
  relative viability: 0.97
[22]; first compound 0.3162 µM
  relative viability: 1
[23]; first compound 0.01 µM
  relative viability: 0.446
[23]; first compound 0.03162 µM
  relative viability: 0.472
[23]; first compound 0.3162 µM
  relative viability: 0.485

From the supplement of paper PMC10307832
